Patent US8598118B2, “Hepatocyte growth factor mimics as therapeutic agents” (Washington State University, priority 2011, dated 2013)
Where “and” joins values, the source holds several entries; their conditions need not be identical. Equal entries are not always repeated.

Legend:
hippocampal neurons [1] = assay: Immunocytochemistry: percent correlation of spines to synaptic markers (VGLUT1, Synapsin, PSD-95); type: cell-based, rat; settings: HGF 10 ng/ml, 5 days
Experimental: Transfected neurons were treated, fixed and stained. Briefly, cells were permeablized with 0.1% Triton X-100 detergent (Bio-Rad; Hercules, Calif.) for 10 minutes. An 8% bovine serum albumin (Intergen Company; Burlington, Mass.) in PBS was used to prevent non-specific binding for one hour at R.T.; Primary antibody incubations were at a 1:2500 dilution (see below) in 1% BSA in PBS at 4° C. overnight. Secondary antibody, 1:3000 Alexafluor 488 goat-anti-mouse (Invitrogen: Carlsbad, Calif.) was applied for two hours at room temperature. Coverslips were mounted with ProLong Gold anti-fade reagent (Invitrogen; Carlsbad, Calif.) and all washes were done with PBS. Imaging and analysis were performed as described above. […] In each instance the total number of spines was counted for the treatment groups, control, Nle1-AngIV and Dihexa, to ensure an active phenotype. The total number of actin enriched spines adjacent to VGLUT1 or Synapsin were counted and converted to a percentage as the percent correlation of treatment-induced spines to presynaptic markers is a strong indicator of ability to transmit excitatory signals.
Transfected neurons were treated, fixed and stained as previously described in Chapter two. […] In each instance the total number of spines was counted for the treatment groups, control, Nle1-AngIV and Dihexa, to ensure an active phenotype. […]

hippocampal neurons [2] = assay: Whole-cell recordings of AMPA-mediated mEPSCs; type: cell-based, rat; settings: HGF 10 ng/ml, 5 days (Example 2)
c-Met receptor = target: T1, c-Met receptor (Rattus norvegicus, UniProt P97523); assay: Effect of c-Met knock-down (shMet) on spinogenesis in hippocampal neurons; type: cell-based; settings: HGF 10 ng/ml, 48 hours
T1 construct: Dissociated hippocampal neurons were transfected with mRFP-β-actin and shMet RNA; endogenous in cells; host or cells: dissociated hippocampal neurons from P1-2 Sprague Dawley rats
From the text: Neurons were transfected with mRFP-β-actin on day in vitro 6 (DIV6) using LipofectAMINE™ 2000 (Invitrogen) according to the manufacturer's protocol. This protocol yielded the desired 3-5% transfection efficiency thus enabling the visualization of individual neurons. Higher efficiencies obscured the dendritic arbor of individual neurons. Expression of fluorescently tagged actin allowed clear visualization of dendritic spines, as dendritic spines are enriched in actin. On DIV7 the cells were treated with vehicle (H20) or peptides (as described in the text) added to media. On DIV 12 the neurons were fixed (4% paraformaldehyde, 3% sucrose, 60 mM PIPES, 25 mM HEPES, 5 mM EGTA, 1 mM MgCl2, pH 7.4) for 20 min at room temperature and mounted. Slides were dried for at least 20 hours at 4° C. and fluorescent images were obtained with Slidebook 4.2 Digital Microscopy Software driving an Olympus IX81 inverted confocal microscope with a 60× oil immersion lens, NA 1.4 and resolution 0.280 μm Dendritic spine density was measured on primary and secondary dendrites at a distance of at least 150 μm from the soma. Five 50 μm long segments of dendrite from at least 10 neurons per data point were analyzed for each data point reported. Each experiment was repeated at least three times using independent culture preparations. Dendrite length was determined using the National Institutes of Health's Image J 1.41o program (NIH, Bethesda, Md.) and the neurite tracing program Neuron J (Meijering, Jacob et al. 2004) Spines were manually counted.
A target sequence for c-Met was designed using RNAi central design program (see the website located at cancan.cshl.edu/). […]. The shRNA was transfected into cells using the lipofectamine method described above. Verification of receptor knockdown was done by creating a c-Met-6-Myc tagged gene product using the Gateway cloning system (Invitrogen). […]

T1 sequence (P17945 33-495 partner limits assumed): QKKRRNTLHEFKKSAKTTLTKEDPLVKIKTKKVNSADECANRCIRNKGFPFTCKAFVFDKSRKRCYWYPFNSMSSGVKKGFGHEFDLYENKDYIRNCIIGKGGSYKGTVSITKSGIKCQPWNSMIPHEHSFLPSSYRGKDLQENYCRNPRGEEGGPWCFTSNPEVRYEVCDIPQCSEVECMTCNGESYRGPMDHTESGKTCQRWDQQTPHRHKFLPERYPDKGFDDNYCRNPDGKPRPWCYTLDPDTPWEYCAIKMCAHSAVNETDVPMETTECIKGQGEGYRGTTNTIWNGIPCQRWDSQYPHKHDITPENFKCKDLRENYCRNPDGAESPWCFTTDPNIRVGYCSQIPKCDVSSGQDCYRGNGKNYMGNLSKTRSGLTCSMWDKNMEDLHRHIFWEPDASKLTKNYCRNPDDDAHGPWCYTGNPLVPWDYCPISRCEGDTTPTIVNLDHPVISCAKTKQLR
T1 sequence (P17945 496-728 partner limits assumed): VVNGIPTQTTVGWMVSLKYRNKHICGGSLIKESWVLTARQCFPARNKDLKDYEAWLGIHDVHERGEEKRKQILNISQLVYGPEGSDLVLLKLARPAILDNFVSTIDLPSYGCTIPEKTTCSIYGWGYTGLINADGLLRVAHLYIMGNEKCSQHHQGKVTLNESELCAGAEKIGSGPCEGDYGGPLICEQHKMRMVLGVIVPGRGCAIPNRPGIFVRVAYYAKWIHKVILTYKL
T1 sequence (P97523 25-1382): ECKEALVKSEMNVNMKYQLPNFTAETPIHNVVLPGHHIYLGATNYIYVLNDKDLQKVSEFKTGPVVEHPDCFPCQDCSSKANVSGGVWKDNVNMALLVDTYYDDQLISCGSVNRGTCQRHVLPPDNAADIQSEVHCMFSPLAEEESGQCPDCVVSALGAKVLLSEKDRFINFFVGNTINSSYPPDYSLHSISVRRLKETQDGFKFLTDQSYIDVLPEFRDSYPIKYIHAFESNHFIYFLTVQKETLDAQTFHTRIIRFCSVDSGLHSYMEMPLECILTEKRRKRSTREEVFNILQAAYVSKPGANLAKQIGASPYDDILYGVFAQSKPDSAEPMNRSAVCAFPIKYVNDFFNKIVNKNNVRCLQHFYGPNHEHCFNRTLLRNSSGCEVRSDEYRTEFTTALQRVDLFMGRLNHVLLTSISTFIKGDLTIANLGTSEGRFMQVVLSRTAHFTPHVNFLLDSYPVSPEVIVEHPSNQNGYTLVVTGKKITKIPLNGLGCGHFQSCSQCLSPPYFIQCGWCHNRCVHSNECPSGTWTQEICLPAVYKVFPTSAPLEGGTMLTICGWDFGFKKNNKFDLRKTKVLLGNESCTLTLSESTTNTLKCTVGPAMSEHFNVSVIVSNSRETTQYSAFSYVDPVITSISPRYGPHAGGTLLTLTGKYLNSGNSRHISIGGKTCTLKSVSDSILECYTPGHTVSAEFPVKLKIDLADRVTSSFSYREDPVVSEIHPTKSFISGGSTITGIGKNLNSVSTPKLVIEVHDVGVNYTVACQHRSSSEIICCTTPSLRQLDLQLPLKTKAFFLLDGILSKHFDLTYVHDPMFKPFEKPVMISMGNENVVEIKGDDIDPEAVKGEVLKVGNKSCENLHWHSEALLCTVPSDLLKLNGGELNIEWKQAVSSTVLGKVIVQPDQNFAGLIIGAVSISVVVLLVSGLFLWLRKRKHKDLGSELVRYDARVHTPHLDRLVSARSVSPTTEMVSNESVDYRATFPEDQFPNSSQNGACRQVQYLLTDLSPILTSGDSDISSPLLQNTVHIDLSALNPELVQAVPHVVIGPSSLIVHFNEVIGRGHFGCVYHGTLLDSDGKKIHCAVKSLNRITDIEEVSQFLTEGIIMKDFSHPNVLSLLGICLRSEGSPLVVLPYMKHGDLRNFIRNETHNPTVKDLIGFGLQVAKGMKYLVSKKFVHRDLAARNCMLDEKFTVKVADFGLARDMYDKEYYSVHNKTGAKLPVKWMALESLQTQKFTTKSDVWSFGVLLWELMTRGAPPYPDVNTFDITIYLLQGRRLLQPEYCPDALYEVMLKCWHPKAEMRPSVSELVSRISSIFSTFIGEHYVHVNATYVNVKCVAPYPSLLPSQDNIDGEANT

## HGF: carrier free adult recombinant Hepatocyte Growth Factor (R and D Systems)
Hippocampal neurons [1]
  percent correlation of spines to Synapsin: 98%
Hippocampal neurons [2]
  mean frequency of mEPSCs: 7.09±0.53 and 9.66±0.20
c-Met receptor; neurons transfected with mRFP-β-actin alone
  mean spine numbers per 50 μm dendrite length: 20.6
c-Met receptor; neurons transfected with mRFP-β-actin and shMet
  mean spine numbers per 50 μm dendrite length: 12.4
